The values below come from the OPERA property sets (Mansouri et al. 2018).

Structures are written as SMILES. Peptide text beside a SMILES is read from it.

By logP is commonly meant a log measure of how a compound divides between an organic and an aqueous phase. Higher therefore signals a more lipophilic compound.

Consider `Cn1cc2ccc([N+](=O)[O-])cc2n1`, for which the logP was found to be 1.76.
To `COc1ccc(N(CCCC(=O)O)C(=O)c2ccc(Cl)cc2)cc1` belongs 2.7; to `CCBr`, 1.61.
The same measure for `CC(=O)Nc1cccc2nccnc12`: 1.06; for `O=C(CN1CCCCC1)Nc1ccccc1F`: 2.16.
The same measure for `NC(=O)Nc1ccc(C(O)C(CO)NC(=O)C(Cl)Cl)cc1` (stereo not given): -0.6; for `COC(=O)CCCCC(=O)OC`: 1.03.
`C#CCC(O)(c1ccc(F)cc1)c1cccnc1` (stereo not given) returned a logP of 1.78.
`CCCCCN(C)/N=N/c1ccc(C(N)=O)cc1` returned a logP of 3.18.
To `FC(F)(F)Oc1ccccc1` belongs 3.17.
Regarding `O=C(O)Cc1ccc(OCCc2ccccc2)c(Cl)c1`, the logP amounted to 3.53.
Compound `c1ccc(P(c2ccccc2)c2ccccc2)cc1` displayed a logP of 5.69.
With `CCc1cc(NC(C)=O)cc(CC)c1O`, the logP was found to be 1.87.
In turn, `CC(=O)c1cccc(C(=O)O)c1` registered a log partition coefficient (logP) of 1.56.
The same measure for `CC(=O)OCC(=O)[C@@]1(O)[C@@H](C)C[C@H]2[C@@H]3CCC4=CC(=O)C=C[C@]4(C)[C@@]3(F)[C@@H](O)C[C@@]21C`: 2.77; for `CC(=O)Nc1ccc([N+](=O)[O-])cc1`: 1.66; for `Cc1cnc(C)cn1`: 0.63.
Compound `CF` displayed a logP of 0.51.
The same measure for `CCOCC1CO1` (stereo not given): 0.36.
As for `O=C(O)c1c(F)cccc1Cl`, the log partition coefficient (logP) was 2.11.
To `CC1CN1C1=CC(=O)c2ccccc2C1=O` (stereo not given) belongs 2.17; to `NCCCN`, -1.43; to `O=c1c(O)c(-c2ccc(O)cc2O)oc2cc(O)cc(O)c12`, 1.54.
`Cc1ccc2cc(C)c(C)cc2c1` displayed a logP of 4.73.
To `CC(=O)Nc1ccccn1` belongs 0.61; to `C=CCBr`, 1.79; to `Nc1ccc(S(=O)(=O)Nc2ccc(Cl)cc2)cc1`, 2.71.
The same measure for `O=C(CC(=O)C(F)(F)F)c1cccs1`: 1.46; for `CN(C)CC/C=C1\c2ccccc2Sc2ccc(Cl)cc21`: 5.18; for `CC(=O)c1ccc(C(C)=O)cc1`: 1.34.
The same measure for `Oc1cccc(F)c1`: 1.93; for `c1ccc2c(c1)CCC2`: 3.18; for `N#Cc1ccc2ccccc2n1`: 1.6.
`NC(=O)c1ccc(C(F)(F)F)cc1` came in with a logP of 1.71.
To `CC(=O)NCCCOc1cccc(CN2CCCCC2)c1` belongs 2.15; to `C=CC(=O)O`, 0.35; to `Clc1ccc2ccccc2n1`, 2.71.
To `CNC(=O)Oc1ccccc1I` belongs 1.94; to `CNCC(=O)O`, -2.78; to `CC(=O)Oc1ccccc1Br`, 2.2.
To `O=NN(CCCl)C(=O)NCCCl` belongs 1.53; to `Cc1cc(C)[nH]n1`, 1.01; to `CC(=O)OCc1coc(Cc2ccccc2)c1`, 3.24.
Turning to `Cc1ccsc1`, the logP stood at 2.34.
Compound `CCN(N=O)C(N)=O` showed a logP of 0.23.
`O=S(=O)(Nc1ccc(-c2ccccc2)cc1)C(F)(F)F` returned a logP of 4.97.
The same measure for `CS(=O)CC(=O)C=NO` (stereo not given): -0.72.
Compound `CCCCc1cccc(NC(=O)N(C)C)c1` displayed a logP of 3.23.
To `CCCCCCC1(c2ccncc2)CCC(=O)NC1=O` (stereo not given) belongs 2.94; to `OC(c1ccccc1)(C(F)(F)F)C(F)(F)F`, 3.41; to `COC(=O)c1ccc(S(I)=C(N(C)C)N(C)C)cc1` (stereo not given), -0.74.
In the case of `O=C(COc1ccccc1)NNCc1ccccc1`, the logP was determined as 2.16.
The same measure for `CCC(C)C(NC(C)=O)C(=O)NC(Cc1ccccc1)C(=O)NC(C)C(N)=O` (stereo not drawn) (Ac-Ile-Phe-Ala-NH2; configuration not given here): 0.52; for `N#CCc1cccs1`: 1.26; for `COc1ccc2ncccc2c1`: 2.2.
